Measured values as given in patent US20140364493A1, “METHOD OF INHIBITING REMNANT LIPOPROTEIN PRODUCTION” (Japan Tobacco Inc., priority 2003, published 2014).

What was measured:
[1] = tested on: remnant lipoprotein production in plasma of healthy subject; assay: In vitro effect on remnant lipoprotein production in plasma (RLP-cholesterol JIMRO II); type: biochemical, human; conditions: 37° C.
Procedure: Compound A, Compound B, Compound C and Compound D were previously dissolved in dimethyl sulfoxide (DMSO). Plasma (200 μL) of healthy subject, and a solution (2 μL) of each compound in DMSO or DMSO (2 μL) were added into a microtube. On the other hand, a monoclonal antibody against human CETP was diluted with physiological saline and added into a microtube together with plasma (190 μL) of healthy subject and a diluted solution (10 μL) of the monoclonal antibody or physiological saline (10 μL). […] After ice-cooling, the cholesterol amount in the remnant fraction was measured using “RLP-cholesterol “JIMRO II”” (manufactured by Japan Immunoresearch Laboratories Co., Ltd.). The difference in the measured values from incubation of solvent alone at 4° C. and 37° C., namely, an increase in the remnant cholesterol was taken as a 100% production amount of remnant lipoprotein, and the percent of decrease in the measured values of incubation at 37° C. with the addition of each compound or the antibody was taken as percent inhibition of remnant lipoprotein production.

[2] = tested on: cholesteryl ester transfer from donor lipoprotein to remnant lipoprotein; assay: Cholesteryl ester transfer from donor lipoprotein ([3H]CE-HDL3) to remnant lipoprotein fraction in plasma; type: biochemical, human; conditions: [3H]CE-HDL3-containing plasma, 37° C.
Procedure: (§1) Potassium bromide (KBr) was added to plasma (40 mL) of healthy subject and the mixture was adjusted to have a specific density d=1.125 g/mL. The mixture was subjected to density gradient centrifugation (227,000×g, 4° C., 17 hr) and a fraction showing a specific density of d>1.125 g/mL (HDL3 fraction) was harvested. The obtained fraction was dialyzed against PBS solution [10 mmol/L Na2HPO4; 10 mmol/L NaH2PO4; 0.15 mol/L NaCl; 1 mmol/L EDTA (pH 7.4)]. Then, tritium-labeled cholesterol (37 MBq) was dissolved in 95% ethanol, gradually added to the above-mentioned HDL3 fraction with stirring and incubated at 37° C. for 18 hr. [By this operation, tritium-labeled cholesterol was esterified by the action of lecithin cholesterol acyl transferase (LCAT) present on the HDL3 surface and taken up into HDL3 as tritium-labeled cholesteryl ester ([^3H]CE)]. After incubation, KBr was added, the mixture was adjusted to have a specific density d=1.21 g/mL, subjected to density gradient centrifugation (227,000×g, 4° C., 17 hr) and a fraction of specific density […] was harvested. The obtained fraction was dialyzed against the aforementioned PBS solution to give HDL3 incorporating [^3H]CE ([^3H]CE-HDL3, specific density: 1.125<d<1.21, specific activity: 22,000-33,000 dpm/μL), which was used as a donor lipoprotein.
The donor lipoprotein obtained above was added to the plasma of healthy subject to prepare a [^3H]CE-HDL3-containing plasma (2,000-4,000 dpm/μL). Compound A, Compound B, Compound C and Compound D were dissolved in dimethyl sulfoxide (DMSO). A solution of each compound in DMSO (1 μL) or DMSO (1 μL), and the [^3H]CE-HDL3-containing plasma (100 μL) were added into a microtube. On the other hand, the monoclonal antibody was diluted with physiological saline and added into a microtube together with a diluted solution (5 μL) of the monoclonal antibody or physiological saline (5 μL), and [^3H]CE-HDL3 containing plasma (95 μL). […] After ice-cooling, a remnant fraction was harvested using “RLP-cholesterol “JIMRO II”” (manufactured by Japan Immunoresearch Laboratories Co., Ltd.), and the radioactivity in the fraction was measured with a liquid scintillation counter. The difference in the measured values from incubation of solvent alone at 4° C. and 37° C. was taken as a 100% cholesteryl ester transfer activity, and the percent of decrease in the measured values of incubation at 37° C. with the addition of each compound or the antibody was taken as percent inhibition of cholesteryl ester transfer.

CETP = biological target: T1, CETP (Homo sapiens, UniProt P11597); assay: CETP activity in [3H]CE-HDL3-containing plasma (radioactivity in HDL fraction); type: biochemical; conditions: 37° C.
T1 construct: added to the plasma of healthy subject to prepare a [^3H]CE-HDL3-containing plasma; from tissue; host or cells: plasma of healthy subject
T1 sequence (P11597 18-493): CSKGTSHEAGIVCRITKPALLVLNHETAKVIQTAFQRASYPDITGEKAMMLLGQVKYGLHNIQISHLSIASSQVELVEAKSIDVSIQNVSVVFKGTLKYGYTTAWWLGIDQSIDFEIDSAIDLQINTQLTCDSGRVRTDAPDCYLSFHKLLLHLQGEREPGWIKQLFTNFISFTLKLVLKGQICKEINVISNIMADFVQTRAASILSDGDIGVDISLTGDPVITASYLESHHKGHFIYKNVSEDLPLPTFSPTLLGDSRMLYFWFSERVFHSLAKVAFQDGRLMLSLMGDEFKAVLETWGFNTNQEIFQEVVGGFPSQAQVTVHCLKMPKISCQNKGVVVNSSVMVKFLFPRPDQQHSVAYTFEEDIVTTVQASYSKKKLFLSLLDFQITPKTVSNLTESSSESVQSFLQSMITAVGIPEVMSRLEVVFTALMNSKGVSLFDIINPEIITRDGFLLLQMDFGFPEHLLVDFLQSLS
Procedure: as §1
The donor lipoprotein obtained above was added to the plasma of healthy subject to prepare a [^3H]CE-HDL3-containing plasma (2,000-4,000 dpm/μL). […] A solution of each compound in DMSO (1 μL) or DMSO (1 μL), and the [^3H]CE-HDL3-containing plasma (100 μL) were added into a microtube. On the other hand, the monoclonal antibody was diluted with physiological saline and added into a microtube together with a diluted solution (5 μL) of the monoclonal antibody or physiological saline (5 μL), and [^3H]CE-HDL3 containing plasma (95 μL). […] After ice-cooling, a remnant fraction was harvested using “RLP-cholesterol “JIMRO II”” (manufactured by Japan Immunoresearch Laboratories Co., Ltd.), and the radioactivity in the fraction was measured with a liquid scintillation counter. The difference in the measured values from incubation of solvent alone at 4° C. and 37° C. was taken as a 100% cholesteryl ester transfer activity, and the percent of decrease in the measured values of incubation at 37° C. with the addition of each compound or the antibody was taken as percent inhibition of cholesteryl ester transfer.
The CETP activity was measured according to the method shown below using a part of the same plasma after incubation. After ice-cooling, plasma (80 μL) was separated and a TBS solution [80 μL, 20 mmol/L Tris; 0.15 mol/L NaCl (pH 7.4)] containing 50 mmol/L magnesium chloride and 0.1% dextran sulfate was added to each microtube and thoroughly stirred. After standing at 4° C. for 30 min, the mixture was centrifuged (10,000×g, 4° C., 10 min.), and the radioactivity in the obtained supernatant (HDL fraction) was measured with a scintillation counter. The difference in the measured values from incubation of solvent alone at 4° C. and 37° C. was taken as a 100% CETP activity, and the percent of decrease in the measured values of incubation at 37° C. with the addition of each compound or the antibody was taken as percent inhibition of CETP activity. The above results are shown in the following.

| SMILES | Inhibition (%) of remnant lipoprotein production ([1]; 0.1 μM, 4 hr) | Inhibition (%) of remnant lipoprotein production ([1]; 0.3 μM, 4 hr) | Inhibition (%) of remnant lipoprotein production ([1]; 1 μM, 4 hr) | Inhibition (%) of cholesteryl ester transfer to remnant fraction ([2]; 0.1 μM, 4 hr) | Inhibition (%) of cholesteryl ester transfer to remnant fraction ([2]; 0.3 μM, 4 hr) | Inhibition (%) of cholesteryl ester transfer to remnant fraction ([2]; 1 μM, 4 hr) | Inhibition (%) of remnant lipoprotein production ([1]; 0.01 μM, 4 hr) | Inhibition (%) of remnant lipoprotein production ([1]; 0.03 μM, 4 hr) | Inhibition (%) of cholesteryl ester transfer to remnant fraction ([2]; 0.01 μM, 4 hr) | Inhibition (%) of cholesteryl ester transfer to remnant fraction ([2]; 0.03 μM, 4 hr) | further results |
| --- | --- | --- | --- | --- | --- | --- | --- | --- | --- | --- | --- |
| CCN(CC1CCCC1)c1cc2c(cc1CN(Cc1cc(C#N)cc(C(F)(F)F)c1)C(=O)OC)CCC2 [Compound C, methyl (3-cyano-5-trifluoromethylbenzyl)-[6-(N-cyclopentylmethyl-N-ethylamino)indan-5-ylmethyl]-carbamate] | 21% | 34% | 41% | −25% | 9% | 35% |  |  |  |  | Inhibition (%) of remnant lipoprotein production ([1]; 3 μM, 4 hr): 93%; Inhibition (%) of cholesteryl ester transfer to remnant fraction ([2]; 3 μM, 4 hr): 92%; inhibition at 0.1 µM (CETP; 0.1 μM, 4 hr): 6%; inhibition at 0.3 µM (CETP; 0.3 μM, 4 hr): 12%; inhibition at 1 µM (CETP; 1 μM, 4 hr): 31%; inhibition at 3 µM (CETP; 3 μM, 4 hr): 57% |
| CCN(C[C@H]1CC[C@H](CC(=O)O)CC1)c1cc(C)c(C(F)(F)F)cc1CN(Cc1cc(C(F)(F)F)cc(C(F)(F)F)c1)c1nnn(C)n1.CS(=O)(=O)O [Compound B, trans-(4-{[N-(2-{[N′-[3,5-bis(trifluoromethyl)benzyl]-N′-(2-methyl-2H-tetrazol-5-yl)amino]methyl}-5-methyl-4-trifluoromethylphenyl)-N-ethylamino]methyl}cyclohexyl)acetic acid methanesulfonate] | 42% | 52% | 84% | 55% | 89% | 100% | 29% | 36% | 15% | 26% | Inhibition (%) of CETP activity (CETP; 0.01 μM, 4 hr): 10%; Inhibition (%) of CETP activity (CETP; 0.03 μM, 4 hr): 25%; Inhibition (%) of CETP activity (CETP; 0.1 μM, 4 hr): 53%; Inhibition (%) of CETP activity (CETP; 0.3 μM, 4 hr): 74%; Inhibition (%) of CETP activity (CETP; 1 μM, 4 hr): 86% |
| CCC(CC)CC1(C(=O)Nc2ccccc2SC(=O)C(C)C)CCCCC1 [Compound A, S-{2-([[1-(2-ethylbutyl)cyclohexyl]carbonyl]amino)phenyl}2-methylpropanethioate] |  |  |  |  |  |  |  |  |  |  | Inhibition (%) of remnant lipoprotein production ([1]; 3 μM, 6 hr): 25%; Inhibition (%) of remnant lipoprotein production ([1]; 10 μM, 6 hr): 54%; Inhibition (%) of remnant lipoprotein production ([1]; 30 μM, 6 hr): 77%; Inhibition (%) of cholesteryl ester transfer to remnant fraction ([2]; 3 μM, 6 hr): 21%; Inhibition (%) of cholesteryl ester transfer to remnant fraction ([2]; 10 μM, 6 hr): 29%; Inhibition (%) of cholesteryl ester transfer to remnant fraction ([2]; 30 μM, 6 hr): 92%; Inhibition (%) of CETP activity (CETP; 3 μM, 6 hr): 3%; Inhibition (%) of CETP activity (CETP; 10 μM, 6 hr): 34%; Inhibition (%) of CETP activity (CETP; 30 μM, 6 hr): 75% |
| CCOC(=O)N1c2ccc(C(F)(F)F)cc2[C@@H](N(Cc2cc(C(F)(F)F)cc(C(F)(F)F)c2)C(=O)OC)C[C@H]1CC [Compound D, ethyl (2R,4S)-4-[[3,5-bis(trifluoromethyl)benzyl](methoxycarbonyl)amino]-2-ethyl-6-(trifluoromethyl)-3,4-dihydroquinoline-1(2H)-carboxylic acid ester] | 44% | 59% | 62% | 54% | 78% | 94% | 38% | 32% | 12% | 28% |  |
